Results: ChEMBL document CHEMBL1138993, “Thyroid receptor ligands. Part 5: novel bicyclic agonist ligands selective for the thyroid hormone receptor beta” (Bioorg Med Chem Lett, 2006)
pEC50, pIC50: −log10 of the molar value.

Tests used:
[1] = target: T1, Thyroid hormone receptor alpha (Homo sapiens, UniProt P10827)
T1 sequence (P10827 whole entry): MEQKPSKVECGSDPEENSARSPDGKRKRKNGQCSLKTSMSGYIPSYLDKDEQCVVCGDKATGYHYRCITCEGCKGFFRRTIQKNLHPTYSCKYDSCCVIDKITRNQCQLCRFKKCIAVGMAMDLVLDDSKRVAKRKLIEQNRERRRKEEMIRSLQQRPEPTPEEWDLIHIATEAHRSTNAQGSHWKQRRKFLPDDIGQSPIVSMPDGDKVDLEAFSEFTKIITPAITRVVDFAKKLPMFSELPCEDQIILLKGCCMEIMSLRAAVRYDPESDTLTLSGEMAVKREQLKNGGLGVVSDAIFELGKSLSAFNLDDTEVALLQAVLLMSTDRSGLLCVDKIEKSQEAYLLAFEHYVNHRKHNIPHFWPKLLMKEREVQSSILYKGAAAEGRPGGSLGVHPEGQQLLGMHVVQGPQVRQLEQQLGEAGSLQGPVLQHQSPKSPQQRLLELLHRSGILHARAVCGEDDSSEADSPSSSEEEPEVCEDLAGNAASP
Description: Inhibition of human TR-alpha-1 by radioligand binding assay

[2] = target: T1, Thyroid hormone receptor alpha; remark: listed apart in the source
Description: Efficacy against TRAF-alpha-1 reporter cells

[3] = target: T2, Thyroid hormone receptor beta (Homo sapiens, UniProt P10828)
T2 sequence (P10828 whole entry): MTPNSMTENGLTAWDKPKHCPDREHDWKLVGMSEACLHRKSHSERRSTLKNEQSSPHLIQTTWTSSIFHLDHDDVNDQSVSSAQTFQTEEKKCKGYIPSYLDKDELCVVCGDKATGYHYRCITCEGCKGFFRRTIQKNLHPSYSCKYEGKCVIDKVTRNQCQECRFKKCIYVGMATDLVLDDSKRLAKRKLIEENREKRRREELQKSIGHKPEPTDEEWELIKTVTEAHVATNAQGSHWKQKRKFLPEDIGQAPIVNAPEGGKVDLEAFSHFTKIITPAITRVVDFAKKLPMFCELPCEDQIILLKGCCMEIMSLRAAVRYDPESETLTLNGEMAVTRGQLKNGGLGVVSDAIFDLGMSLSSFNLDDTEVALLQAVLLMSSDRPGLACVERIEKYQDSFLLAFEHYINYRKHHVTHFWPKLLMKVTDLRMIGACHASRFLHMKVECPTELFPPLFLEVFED
Description: Inhibition of human TR-beta-1 by radioligand binding assay

[4] = target: T2, Thyroid hormone receptor beta; remark: listed apart in the source
Description: Efficacy against TRAF-beta-1 reporter cells

Work on `CC(C)c1cc(Oc2c(Cl)cc3[nH]c(C(=O)O)cc3c2Cl)ccc1O` yielded a pIC50 [1] of 8.85 and a pEC50 [2] of 8.00.
Compound `CC(C)c1cc(Oc2c(Br)cc3nc(C(=O)O)cc(O)c3c2Br)ccc1O` has a pIC50 [1] of 6.60 and a pIC50 [3] of 7.29.
`Cc1cc2nc(C(=O)O)ccc2c(C)c1Oc1ccc(O)c(C(C)C)c1` gave a pIC50 [1] of 6.70, a pIC50 [3] of 7.82 and a pEC50 [2] of 7.08. It also gave a pEC50 [4] of 7.31.
Compound `CC(C)c1cc(Oc2c(Br)cc3[nH]c(C(=O)O)cc3c2Br)ccc1O` has a pIC50 [1] of 8.60, a pIC50 [3] of 9.55 and a pEC50 [2] of 8.00. For the same compound, the pEC50 [4] was 8.38.
`Cc1cc2[nH]c(C(=O)O)cc(=O)c2c(C)c1Oc1ccc(O)c(C(C)C)c1` was tested, and the pIC50 [1] was 6.21 and the pIC50 [3] was 6.62.
`CC(C)c1cc(Oc2c(Br)cc3c(c2Br)CC(C(=O)O)C3)ccc1O` (stereo not given) gave a pIC50 [1] of 7.42, a pIC50 [3] of 8.07 and a pEC50 [2] of 8.39. For the same compound, the pEC50 [4] was 8.37.
Work on `CC(C)c1cc(Oc2c(Cl)cc3[nH]c(C(=O)O)cc(=O)c3c2Cl)ccc1O` yielded a pIC50 [1] of 5.46 and a pIC50 [3] of 6.06.
